The source of these data is US7262215B2, “N-carbacycle monosubstituted indolocarbazoles as protein kinase inhibitors” (NAD AG, priority 2001, dated 2007).

What all share (assay type): biochemical
Holding throughout (conditions): 10 μM compound; NA = not active

The target of one assay is His tagged ERK2 (Homo sapiens, UniProt P28482). The assay can be described thus: Extracellular signal Regulated Kinase 2 inhibition assay (ERK2), radioactivity-based. As for the experimental part: Inhibition of Extracellular Signal Regulated Kinase 2 (ERK 2) Activity
(§1) The ERK2 kinase activity assay utilizes a radioactivity-based format in a 96-well PCR plate with radioactive readout. The ERK2 activity was assayed in a 25 μL assay mixture containing 25 mM HEPES (pH 7.0), 250 μM ATP, […], 1 mM DTT, 2% DMSO, 150 ng/mL Myelin Basic Protein (MBP, Sigma M-1891), and 13.6 ng/mL His tagged ERK2 (specific activity=38.1 nmol/min*mg). Compounds were screened for inhibition of the ERK2 kinase activity at a concentration of 10 μM. The kinase reaction was allowed to proceed at 37° C. for 30 minutes, then reaction was stopped by the addition of 5 μL of 0.5M EDTA (pH 8). 15 μL of each solution were then spotted onto the corresponding square of a filtermat (8×12 glassfibre mat 90×120 mm. PE-Wallac 1450–421). The filtermat was allowed to dry and washed once with 10% TCA, 2% PPA, 500 mM NaCl each for 30 minutes at rt. Two further washings in 10% TCA and 2% PPA for 30 minutes were performed, then a final 30 minute wash in 99% EtOH at rt was done and the filtermat was air dried. The dry filtermat was then placed in a sample bag with a Meltilex sheet (Melt-on scintillator sheets […], PE-Wallac 1450–441 for filtermat A) over the filtermat. The bag was trimmed to fit into the microplate heatsealer (PE-Wallac 1495–021). The heatsealer is used to melt the Meltilex on the filtermat. The bag containing the filtermat and the melted Meltilex was then placed into a filter cassette and counted using the Microbeta Jet Scintillation and Luminescence Counter PE-Wallac 1450.

In the next assay the test system is PKC (rat brain). The assay can be described thus: Protein Kinase C inhibition assay (PKC), radioactivity-based. As for the experimental part: as §1
Inhibition of Protein Kinase C Activity
The PKA kinase activity assay utilizes a radioactivity-based format in a 96-well PCR plate with radioactive readout. The PKA activity was assayed in a 25 μL assay mixture containing 25 mM HEPES (pH 7.0), 250 μM ATP, 10 mM MgCl2, 1 mM DTT, 1 mM EDTA (pH 8), 2 mM CaCl2, 2% DMSO, 250 ng/mL Histone H1 (Roche 1 004 875), and 165 ng/mL PKC (rat brain, Calbiochem 539494, specific activity=1600 nmol/min*mg), Compounds were screened for inhibition of the PKC kinase activity at a concentration of 10 μM. The kinase reaction was allowed to proceed at 37° C. for 30 minutes, then the reaction was stopped by addition of 5 μL of 0.5M EDTA (pH 8). The remainder of the protocol is identical to the one reported for ERK2.

In a further assay the target is T1, GSK3β (Homo sapiens, UniProt P49841).
T1 construct: purchased Upstate Discovery
The assay can be described thus: Glycogen Synthase Kinase 3β inhibition assay, radioactivity-based. How it is done:
Inhibition of Glycogen Synthase Kinase 3, Activity
The GSK3, kinase activity assay utilizes a radioactivity-based format in a 96-well PCR plate with radioactive readout. The GSK3β activity was assayed in a 25 μL assay mixture containing 8 mM HEPES (pH 7.0), 250 μM ATP, 0.2 mM EDTA (pH 8), 2% DMSO, 250 ng/mL Myelin Basic Protein (MBP, Sigma M-1891), and 12 ng/mL GSK3 (Upstate Discovery, specific activity=607 nmol/min*GS2 peptide, concentration of 6.05 mg/mL). Compounds were screened for inhibition of the GSK3 P kinase activity at a concentration of 10 μM. The kinase reaction was allowed to proceed at 37° C. for 30 minutes, then the reaction was stopped by addition of 5 μL of 0.5M EDTA (pH 8).

Assay [1] addresses T2, PKA (catalytic subunit, bovine heart) (Bos taurus, UniProt P00517).
T2 construct: PKA (catalytic subunit, bovine heart, Calbiochem 539486); purchased Calbiochem 539486; host or cells: bovine heart (tissue-derived)
Nature of the assay: Protein Kinase A inhibition assay (PKA), radioactivity-based. How it is done:
as §1
Inhibition of Protein Kinase A Activity
The PKA kinase activity assay utilizes a radioactivity-based format in a 96-well PCR plate with radioactive readout. The PKA activity was assayed in a 25 μL assay mixture containing 25 mM HEPES (pH 7.0), 250 μM ATP, 10 mM MgCl2, 1 mM DTT, 1 mM EBTA (pH 8), 2% DMSO, 250 ng/mL Histone H2B (Roche 223 514), and 2 ng/mL PKA (catalytic subunit, bovine heart, Calbiochem 539486, specific activity=1170 μmol/min*μg). Compounds were screened for inhibition of the PKA kinase activity at a concentration of 10 μM. The kinase reaction was allowed to proceed at 37° C. for 30 minutes, then the reaction was stopped by addition of 5 μL of 0.5M EDTA (pH 8). The remainder of the protocol is identical to the one reported for ERK2.

T1 sequence (P49841 whole entry, species assumed): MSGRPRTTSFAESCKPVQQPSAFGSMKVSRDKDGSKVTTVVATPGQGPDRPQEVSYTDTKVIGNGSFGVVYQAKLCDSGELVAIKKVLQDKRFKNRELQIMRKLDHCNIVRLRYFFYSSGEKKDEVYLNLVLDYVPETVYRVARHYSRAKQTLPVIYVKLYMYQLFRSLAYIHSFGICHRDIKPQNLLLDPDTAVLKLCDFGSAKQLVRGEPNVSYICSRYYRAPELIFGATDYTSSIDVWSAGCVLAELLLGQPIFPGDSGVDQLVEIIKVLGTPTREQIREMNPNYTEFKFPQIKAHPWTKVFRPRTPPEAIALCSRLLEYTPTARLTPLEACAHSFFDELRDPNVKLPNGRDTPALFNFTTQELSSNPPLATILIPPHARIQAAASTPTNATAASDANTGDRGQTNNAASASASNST
Chain of His tagged ERK2 (P28482 whole entry): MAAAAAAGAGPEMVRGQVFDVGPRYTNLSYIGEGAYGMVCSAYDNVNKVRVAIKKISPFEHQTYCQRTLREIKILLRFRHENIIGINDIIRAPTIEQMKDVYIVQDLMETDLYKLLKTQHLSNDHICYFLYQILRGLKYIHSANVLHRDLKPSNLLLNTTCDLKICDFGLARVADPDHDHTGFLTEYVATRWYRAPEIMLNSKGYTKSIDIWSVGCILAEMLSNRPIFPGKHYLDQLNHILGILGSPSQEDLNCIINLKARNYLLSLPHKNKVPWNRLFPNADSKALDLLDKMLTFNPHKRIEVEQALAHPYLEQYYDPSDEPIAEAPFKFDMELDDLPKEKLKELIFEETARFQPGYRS

Usually inhibition stands for how much of the control response was suppressed. As for `CCOC(=O)N1C(=O)c2c(c3c4ccccc4n(C4C=C[C@H](NC(C)=O)C4)c3c3[nH]c4ccccc4c23)C1=O` (mixture of isomers) [NAD117], the inhibition at 10 µM at His tagged ERK2 amounted to 60%; at GSK3β, 25%. Further, the “% Inhibition PKC” value in the assay on PKC (rat brain) turned out to be 68.74%.

In the case of `CC(=O)O[C@H]1C=CC(n2c3ccccc3c3c4c(c5c6ccccc6[nH]c5c32)C(=O)NC4=O)CC1` (mixture of isomers) [NAD106], the figures for the inhibition at 10 µM (at His tagged ERK2; in assay [1]; on GSK3β) were 53.4%, 17.1% and 25.4%, respectively. Also, the “% Inhibition PKC” value in the assay on PKC (rat brain) is 52.00%.

Take `O=C1NC(=O)c2c1c1c3ccccc3[nH]c1c1c2c2ccccc2n1C1C=C[C@@H](O)C1` (mixture of isomers) [NAD006]: the figures for the inhibition at 10 µM (at His tagged ERK2; in assay [1]; at GSK3β) were 84.2%, 18.8% and 83.4%, respectively. Further, in the assay on PKC (rat brain), the “% Inhibition PKC” value is reported as 45.48%.

`CC(=O)O[C@@H]1C=CC(n2c3ccccc3c3c4c(c5c6ccccc6[nH]c5c32)C(=O)NC4=O)CC1` (mixture of isomers) [NAD135]: the inhibition at 10 µM on His tagged ERK2 amounted to 43.2%; in assay [1] it was 17.3%; on GSK3β, 60.8%. The “% Inhibition PKC” value in the assay on PKC (rat brain) was determined as 84.32%.

Regarding `COc1ccc(CN2C(=O)c3c(c4c5ccccc5n(C5CCC(O)CC5)c4c4[nH]c5ccccc5c34)C2=O)cc1` (centres unmarked) [NAD133], the “% Inhibition PKC” value in the assay on PKC (rat brain) worked out at 102.77%.

On to `CN1C(=O)c2c(c3c4ccccc4n(C4C[C@H](O)[C@@H](O)[C@H]4O)c3c3[nH]c4ccccc4c23)C1=O` (mixture of isomers) [NAD157], for which the “% Inhibition PKC” value in the assay on PKC (rat brain) is 55.37%. Besides, the inhibition at 10 µM on GSK3β is 20.2%.

For `N[C@@H]1C=CC(n2c3ccccc3c3c4c(c5c6ccccc6[nH]c5c32)C(=O)NC4=O)C1` (mixture of isomers) [NAD116], the results for the inhibition at 10 µM at His tagged ERK2 and on GSK3β were 24.3% and 18.4%, respectively. Also, the “% Inhibition PKC” value in the assay on PKC (rat brain) is 67.47%.

Turning to `O=C1NC(=O)c2c1c1c3ccccc3[nH]c1c1c2c2ccccc2n1C1C=C[C@H](Cl)CC1` (mixture of isomers) [NAD085], the inhibition at 10 µM at His tagged ERK2 stood at 57.2%; in assay [1], 43.4%; on GSK3β it was 52.2%. The “% Inhibition PKC” value in the assay with PKC (rat brain) is reported as 41.98%.

Take `O=C1NC(=O)c2c1c1c3ccccc3[nH]c1c1c2c2ccccc2n1C1C=C[C@H](O)C1` (mixture of isomers) [NAD162]: the inhibition at 10 µM at His tagged ERK2 is 37.4%; in assay [1] it was 19.9%; on GSK3β, 61.2%. Further, the “% Inhibition PKC” value in the assay on PKC (rat brain) is 58.82%.

For the compound `N[C@H]1C=CC(n2c3ccccc3c3c4c(c5c6ccccc6[nH]c5c32)C(=O)NC4=O)C1` (mixture of isomers) [NAD040], the inhibition at 10 µM on His tagged ERK2 worked out at 97.8%; in assay [1], 98%; at GSK3β, 69.8%. The “% Inhibition PKC” value in the assay on PKC (rat brain) came out at 81.34%.

On to `O=C1NC(=O)c2c1c1c3ccccc3[nH]c1c1c2c2ccccc2n1C1C=C[C@H](Nc2ccccc2)CC1` (mixture of isomers) [NAD148], for which the inhibition at 10 µM on His tagged ERK2 was determined as 41.6%; in assay [1], 26.5%; on GSK3β, 54.1%. Besides, the “% Inhibition PKC” value with PKC (rat brain) amounted to 111.91%.

`CC(=O)O[C@H]1CC(n2c3ccccc3c3c4c(c5c6ccccc6[nH]c5c32)C(=O)NC4=O)[C@H](O)[C@@H]1O` (mixture of isomers) [NAD160]: the inhibition at 10 µM at His tagged ERK2 turned out to be 23.3%; at GSK3β, 30.2%. In addition, the “% Inhibition PKC” value with PKC (rat brain) amounted to 72.37%.

Turning to `O=C1NC(=O)c2c1c1c3ccccc3[nH]c1c1c2c2ccccc2n1C1CC[C@H](O)[C@@H](O)[C@H]1O` (mixture of isomers) [NAD149], the figures for the inhibition at 10 µM (on His tagged ERK2; in assay [1]; at GSK3β) were 93.3%, 35.2% and 94.1%, respectively. In addition, the “% Inhibition PKC” value in the assay on PKC (rat brain) worked out at 55.37%.
